# In patent publication US9427415B2, “Methods and compositions for modifying sensorial perception” (The Procter & Gamble Company, priority 2014, dated 2016):
# Like-named read-outs stand apart in the source and are kept apart here.
# Key:
# human TRPA1 = target: T1, human TRPA1 (Homo sapiens, UniProt O75762, K186N/R3C/R58T); experiment: Intracellular calcium (Fluo-4, FLIPR) activation of TRPA1 cells by GRAS compounds; type: cell-based; settings: for activation at 1000 µM / activation at 100 µM: read-out: A1 activation, % of agonist value;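 as to all read-outs here: TRPA1-expressing cells, fluorescence read on a FLIPR Tetra (ex 488 nm, em 514 nm) every 2 s for 10 min after compound addition, baseline subtracted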
# T1 construct: expressed in transfected cells; pcDNA3 control cells
# T1 sequence (O75762 whole entry R3C/R58T/K186N): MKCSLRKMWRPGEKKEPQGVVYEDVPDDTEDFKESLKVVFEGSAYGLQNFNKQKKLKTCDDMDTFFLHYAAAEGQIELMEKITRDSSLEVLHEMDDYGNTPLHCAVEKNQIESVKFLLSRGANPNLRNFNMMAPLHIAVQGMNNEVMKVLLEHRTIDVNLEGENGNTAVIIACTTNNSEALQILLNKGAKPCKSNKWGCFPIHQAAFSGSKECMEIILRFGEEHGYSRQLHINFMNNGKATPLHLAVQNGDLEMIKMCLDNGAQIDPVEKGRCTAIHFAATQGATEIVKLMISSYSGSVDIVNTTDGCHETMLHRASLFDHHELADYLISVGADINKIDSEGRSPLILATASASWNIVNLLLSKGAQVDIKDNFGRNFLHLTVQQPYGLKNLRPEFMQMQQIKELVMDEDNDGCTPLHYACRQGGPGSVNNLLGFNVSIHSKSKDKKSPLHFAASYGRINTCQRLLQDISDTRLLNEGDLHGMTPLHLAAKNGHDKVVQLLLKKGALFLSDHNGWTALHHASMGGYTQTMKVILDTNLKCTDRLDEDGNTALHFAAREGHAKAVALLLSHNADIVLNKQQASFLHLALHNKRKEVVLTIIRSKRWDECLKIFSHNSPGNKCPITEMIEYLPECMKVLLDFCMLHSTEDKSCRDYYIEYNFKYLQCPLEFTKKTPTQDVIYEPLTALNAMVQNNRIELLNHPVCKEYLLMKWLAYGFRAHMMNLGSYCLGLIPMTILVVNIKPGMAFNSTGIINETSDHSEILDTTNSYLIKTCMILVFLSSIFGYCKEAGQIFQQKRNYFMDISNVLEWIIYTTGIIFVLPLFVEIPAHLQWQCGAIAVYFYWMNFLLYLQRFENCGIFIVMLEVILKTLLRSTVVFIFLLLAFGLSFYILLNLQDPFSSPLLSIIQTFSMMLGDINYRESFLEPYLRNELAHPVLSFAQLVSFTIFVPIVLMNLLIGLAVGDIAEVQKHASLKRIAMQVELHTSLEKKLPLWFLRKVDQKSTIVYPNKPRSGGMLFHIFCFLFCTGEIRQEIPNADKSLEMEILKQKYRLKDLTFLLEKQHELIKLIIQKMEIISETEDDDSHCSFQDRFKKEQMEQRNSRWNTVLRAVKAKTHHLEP
# TRPA1V1 = experiment: Intracellular calcium (Fluo-4, FLIPR) activation of TRPA1V1 cells (co-expressing TRPA1 and TRPV1) by GRAS compounds; type: cell-based, human;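 also: HEK293 cells co-expressing TRPA1 and TRPV1, fluorescence read at 488/514 nm after baseline subtraction, recorded every 2 s over 10 min, ionomycin 10 µM and buffer as controls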
# Experimental: TRPV1, TRPA1, TRPA1V1 and pcDNA3 cells were grown in 15 mL growth medium [high glucose DMEM (Dulbecco's modification of Eagle's medium) supplemented with 10% FBS (fetal bovine serum), 100 μg/mL penicillin/streptomycin, 100 μg/mL G418] in a 75 cm^2 flask for 3 days in a mammalian cell culture incubator at 33° C. and 5% CO2. TRP Cells were detached with 8 mL of PBS (without calcium or magnesium); for pcDNA3 cells, trypsin was used for releasing the cells. The detached cells were spun at low speed (800-900 rpm for 3 min) to pellet the cells. […] The cells were washed once with 45 mL assay buffer (1×HBSS, 20 mM HEPES) by low speed centrifugation (800-900 rpm for 3 min) and resuspended in 11 mL of the assay buffer in a reagent reservoir. […] The plates were set at room temperature for 30 min. The plates were read in a FLIPR^TETRA instrument (Molecular Devices, Sunnyvale, Calif.) at λex 488 nm and λem 514 nm to record baseline fluorescence following which 20 μL of test material at 1 mM or 100 μM final concentration for pure compounds in a GRAS library or 0.004% for extracts. For agonists, capsaicin 350 nM and AITC at 30 μM; and for controls, ionomycin 10 μM and buffer alone) was added to each well using the dispenser provided in the FLIPR. The data point was recorded every 2 seconds for a total of 10 min.
# Average value for activation from three independent assay plates are presented as % of agonist value (AITC, 30 μM for TRPA1 and capsaicin, 350 nM for TRPV1. For TRPA1V1, we used AITC, 30 μM or capsaicin, 350 nM depending on if the compound is an A1 agonist or a V1 agonist. For compounds that activated both A1 and V1, we used AITC for normalization). Variation among triplicates was within 10% of each other. Assayed at 1 mM for pure compounds and 0.004% for extracts.
# human TRPV1 = target: T2, human TRPV1 (Homo sapiens, UniProt Q8NER1, M315I/T336M); experiment: Intracellular calcium (Fluo-4, FLIPR) activation of TRPV1 cells by GRAS compounds; type: cell-based; settings: for activation at 1000 µM / activation at 100 µM: read-out: V1 activation, % of agonist value; for TRPV1 activation selectivity, in words: statement in description, see Table 1(i);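 as to all read-outs here: TRPV1-expressing cells, FLIPR fluorescence at 488/514 nm with baseline subtracted, sampled every 2 s for 10 min after adding compound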
# T2 construct: expressed in transfected cells; pcDNA3 control cells
# T2 sequence (Q8NER1 whole entry M315I/T336M): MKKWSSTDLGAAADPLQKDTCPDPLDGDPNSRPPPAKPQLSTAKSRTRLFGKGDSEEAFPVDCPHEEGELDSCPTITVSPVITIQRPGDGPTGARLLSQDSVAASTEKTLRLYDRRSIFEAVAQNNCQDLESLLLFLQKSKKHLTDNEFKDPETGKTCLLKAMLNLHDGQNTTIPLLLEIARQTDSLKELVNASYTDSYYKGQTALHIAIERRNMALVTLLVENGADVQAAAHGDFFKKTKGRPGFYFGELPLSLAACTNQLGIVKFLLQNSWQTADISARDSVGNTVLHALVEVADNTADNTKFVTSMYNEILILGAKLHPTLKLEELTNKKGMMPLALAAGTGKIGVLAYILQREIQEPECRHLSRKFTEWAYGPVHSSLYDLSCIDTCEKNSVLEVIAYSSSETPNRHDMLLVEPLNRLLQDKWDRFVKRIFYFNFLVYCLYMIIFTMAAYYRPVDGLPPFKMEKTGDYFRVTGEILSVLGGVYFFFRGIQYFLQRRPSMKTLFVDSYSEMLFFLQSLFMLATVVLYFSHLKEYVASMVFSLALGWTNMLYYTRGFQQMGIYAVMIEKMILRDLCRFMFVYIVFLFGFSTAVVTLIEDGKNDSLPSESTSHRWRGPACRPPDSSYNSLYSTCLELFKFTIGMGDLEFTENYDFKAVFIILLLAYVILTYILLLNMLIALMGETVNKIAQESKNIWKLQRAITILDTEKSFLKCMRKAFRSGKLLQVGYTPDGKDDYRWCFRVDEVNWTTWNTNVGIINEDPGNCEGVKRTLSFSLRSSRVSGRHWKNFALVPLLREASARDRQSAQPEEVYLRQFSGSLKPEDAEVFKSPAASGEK
# [1] = Table 1(b), 1 mM, relative to AITC 30 μM
# [2] = Table 1(b), 1 mM, relative to capsaicin 350 nM
# [3] = Table 1(a), 1 mM, relative to AITC 30 μM, average of three plates
# [4] = Table 1(a), 1 mM, relative to capsaicin 350 nM, average of three plates
# [5] = Table 1(a), 100 μM (*), relative to AITC 30 μM
# [6] = Table 1(a), 100 μM (*), relative to capsaicin 350 nM
# [7] = Table 1(e), 100 μM (*), relative to AITC 30 μM
# [8] = Table 1(c), 1 mM, relative to AITC 30 μM
# [9] = Table 1(i), 1 mM, relative to AITC 30 μM, […]
# [10] = Table 1(i), 1 mM, relative to AITC 30 μM or capsaicin 350 nM depending on compound, […]
# [11] = Table 1(i), 1 mM, relative to capsaicin 350 nM, […]
structure (smiles),measurement,setting,value
CCCCCC/C=C/C=O [(E)-2-Nonenal],activation at 1000 µM,human TRPA1; [1],130%
same,"A1V1 activation, % of agonist value",TRPA1V1; [1],61.8%
same,activation at 1000 µM,human TRPV1; [2],89%
C=CCSSSCC=C [Allyl-trisulfide],activation at 1000 µM,human TRPA1; [3],83.5%
same,"A1V1 activation, % of agonist value",TRPA1V1; [3],89.08%
same,activation at 1000 µM,human TRPV1; [4],32.9%
CCCCCC(=Cc1ccccc1)CO [Alpha-Amylcinnamyl alcohol],activation at 1000 µM,human TRPA1; [3],96.4%
same,"A1V1 activation, % of agonist value",TRPA1V1; [3],77.36%
same,activation at 1000 µM,human TRPV1; [4],21.1%
CC1COC(c2ccccc2)O1 (stereo not shown) [Benzaldehyde propylene glycol acetal],"A1 activation, % of agonist value",human TRPA1; [1],48.03%
same,"A1V1 activation, % of agonist value",TRPA1V1; [1],78.33%
same,"V1 activation, % of agonist value",human TRPV1; [2],34.38%
c1ccc2scnc2c1 [Benzothiazole],activation at 100 µM,human TRPA1; [5],51.3%
same,"A1V1 activation, % of agonist value",TRPA1V1; [5],74.4%
same,activation at 100 µM,human TRPV1; [6],33.4%
CC1=C(CC=O)C(C)(C)CCC1 [Beta-Cyclohomocitral],"A1 activation, % of agonist value",human TRPA1; [3],81.44%
same,"A1V1 activation, % of agonist value",TRPA1V1; [3],66.79%
same,"V1 activation, % of agonist value",human TRPV1; [4],61.74%
"CCCCOC(=O)c1ccc(O)cc1 [Butylparaben, Butyl 4-hydroxybenzoate]",activation at 1000 µM,human TRPA1; [3],105%
same,activation at 100 µM,human TRPA1; [7],98.7%
same,"A1V1 activation, % of agonist value",TRPA1V1; [3],98.1%
same,"A1V1 activation, % of agonist value",TRPA1V1; [7],127.3%
same,activation at 1000 µM,human TRPV1; [4],79.1%
Cc1ccc(C(C)C)cc1O [Carvacrol],activation at 1000 µM,human TRPA1; [1],115%
same,"A1V1 activation, % of agonist value",TRPA1V1; [1],134.1%
same,activation at 1000 µM,human TRPV1; [2],84.6%
CC(C)=CCCC(C)CCO (stereo not shown) [Citronellol],activation at 1000 µM,human TRPA1; [1],102%
same,"A1V1 activation, % of agonist value",TRPA1V1; [1],34.4%
same,activation at 1000 µM,human TRPV1; [2],106%
COc1cc(/C=C/C(=O)CC(=O)/C=C/c2ccc(O)c(OC)c2)ccc1O [Curcumin],activation at 1000 µM,human TRPA1; [1],95.3%
same,activation at 100 µM,human TRPA1; [7],102%
same,"A1V1 activation, % of agonist value",TRPA1V1; [1],171.6%
same,"A1V1 activation, % of agonist value",TRPA1V1; [7],150.3%
same,activation at 1000 µM,human TRPV1; [2],43.2%
O=C(O)CC1CCCCC1 [Cyclohexaneacetic acid],activation at 1000 µM,human TRPA1; [3],20.6%
same,"A1V1 activation, % of agonist value",TRPA1V1; [3],61.28%
same,activation at 1000 µM,human TRPV1; [4],56.6%
CCOC(=O)C(O)Cc1ccccc1 (stereo not shown) [Ethyl 2-hydroxy-3-phenylpropanoate],activation at 1000 µM,human TRPA1; [3],95.6%
same,"A1V1 activation, % of agonist value",TRPA1V1; [3],90.76%
same,activation at 1000 µM,human TRPV1; [4],29.2%
CCCCCC(O)CC(=O)OCC (stereo not shown) [Ethyl 3-hydroxyoctanoate],activation at 1000 µM,human TRPA1; [1],97.3%
same,"A1V1 activation, % of agonist value",TRPA1V1; [1],76.90%
same,activation at 1000 µM,human TRPV1; [2],28.1%
CC(C)=CCCC(C)=CCCC(C)=CC=O [Farnesal],"A1 activation, % of agonist value",human TRPA1; [3],97.58%
same,"A1V1 activation, % of agonist value",TRPA1V1; [3],104.4%
same,"V1 activation, % of agonist value",human TRPV1; [4],41.22%
CCCCCC1CCC(=O)O1 (stereo not shown) [Gamma-Nonalactone],"A1 activation, % of agonist value",human TRPA1; [3],33.32%
same,"A1V1 activation, % of agonist value",TRPA1V1; [3],69.15%
same,"V1 activation, % of agonist value",human TRPV1; [4],66.34%
CC(C)=CCC/C(C)=C/CO [Geraniol],activation at 1000 µM,human TRPA1; [1],82.5%
same,"A1V1 activation, % of agonist value",TRPA1V1,63.93%
same,activation at 1000 µM,human TRPV1,42.2%
CCCC(=O)OC/C=C(\C)CCC=C(C)C [Geranyl butyrate],activation at 1000 µM,human TRPA1; [3],76.9%
same,"A1V1 activation, % of agonist value",TRPA1V1; [3],76.26%
same,activation at 1000 µM,human TRPV1; [4],28.9%
"CCCCCC1C(=O)CCC1CC(=O)OC (stereo not shown) [Hedione, Methyl dihydrojasmonate]",activation at 1000 µM,human TRPA1; [1],43.5%
same,activation at 1000 µM,human TRPA1; [8],54.4%
same,"A1V1 activation, % of agonist value",TRPA1V1; [1],60.64%
same,"A1V1 activation, % of agonist value",TRPA1V1; [8],59.58%
same,activation at 1000 µM,human TRPV1; [2],25.6%
CC(C=O)Cc1ccc2c(c1)OCO2 (stereo not shown) [Helional],"A1 activation, % of agonist value",human TRPA1; [3],78.00%
same,"A1V1 activation, % of agonist value",TRPA1V1; [3],71.85%
same,"V1 activation, % of agonist value",human TRPV1; [4],23.38%
CCCCCCC=O [Heptaldehyde],activation at 100 µM,"human TRPA1; Table 1(i), 100 μM (*), relative to AITC 30 μM, […]",4.3%
same,"A1V1 activation, % of agonist value","TRPA1V1; Table 1(i), 100 μM (*), relative to AITC 30 μM or capsaicin 350 nM depending on compound, […]",2.4%
same,activation at 100 µM,"human TRPV1; Table 1(i), 100 μM (*), relative to capsaicin 350 nM, […]",65.3%
same,"TRPV1 activation selectivity, in words",human TRPV1,TRPV1 activators which do not modulate TRPA1 or TRPA1V1
CC(C)CCOC(=O)CCc1ccco1 [Isoamyl 3-(2-furan)propionate],"A1 activation, % of agonist value",human TRPA1; [1],123.3%
same,"A1V1 activation, % of agonist value",TRPA1V1; [1],106.9%
same,"V1 activation, % of agonist value",human TRPV1; [2],32.66%
"S=C=NCc1ccccc1 [Isothiocyanic acid, benzyl ester]",activation at 1000 µM,human TRPA1; [3],110%
same,"A1V1 activation, % of agonist value",TRPA1V1; [3],180.5%
same,activation at 1000 µM,human TRPV1; [4],59.2%
CCCCC/C=C\C/C=C\CCCCCCCC(=O)O [Linoleic acid],activation at 1000 µM,human TRPA1; [3],170%
same,"A1V1 activation, % of agonist value",TRPA1V1; [3],170.4%
same,activation at 1000 µM,human TRPV1; [4],24.9%
O=C(O)CC(O)C(=O)O (stereo not shown) [Malic acid],activation at 1000 µM,human TRPA1; [9],1.9%
same,"A1V1 activation, % of agonist value",TRPA1V1; [10],2.4%
same,activation at 1000 µM,human TRPV1; [11],67.5%
same,"TRPV1 activation selectivity, in words",human TRPV1,TRPV1 activators which do not modulate TRPA1 or TRPA1V1
COC(=O)C1CCCCC1 [Methyl cyclohexanecarboxylate],activation at 1000 µM,human TRPA1; [1],45.5%
same,"A1V1 activation, % of agonist value",TRPA1V1; [1],85.17%
same,activation at 1000 µM,human TRPV1; [2],69.5%
CC/C=C\C/C=C\C/C=C\CCCCCCCC(=O)OC [Methyl linolenate],activation at 1000 µM,human TRPA1; [3],108%
same,"A1V1 activation, % of agonist value",TRPA1V1; [3],104%
same,activation at 1000 µM,human TRPV1; [4],31%
"CCCCCCCCC(=O)NCc1ccc(O)c(OC)c1 [Nonivamide, N-Vanillylnonanamide]",activation at 100 µM,human TRPA1,69%
same,"A1V1 activation, % of agonist value","TRPA1V1; Table 1(g), 1 mM, relative to capsaicin 350 nM",135.6%
same,"A1V1 activation, % of agonist value","TRPA1V1; Table 1(i), 100 μM (*), relative to AITC 30 μM or capsaicin 350 nM depending on compound, values less than 20-25% considered inactive",1.2%
same,activation at 100 µM,human TRPV1,65.5%
same,activation at 1000 µM,human TRPV1,91.4%
C=C(C)[C@@H]1CC=C(CO)CC1 [Perillyl alcohol],activation at 1000 µM,human TRPA1; [3],82%
same,"A1V1 activation, % of agonist value",TRPA1V1; [3],73.28%
same,activation at 1000 µM,human TRPV1; [4],20.4%
O=C(O)C(=O)Cc1ccccc1 [Phenylpyruvic acid],activation at 1000 µM,human TRPA1; [3],68%
same,"A1V1 activation, % of agonist value",TRPA1V1; [3],74.05%
same,activation at 1000 µM,human TRPV1; [4],32.5%
O=C(CCc1ccc(O)cc1)c1c(O)cc(O)cc1O [Phloretin],activation at 100 µM,human TRPA1; [5],160%
same,"A1V1 activation, % of agonist value",TRPA1V1; [5],174.3%
same,activation at 100 µM,human TRPV1; [6],122%
CC1=CC(=O)C(C(C)C)CC1 (stereo not shown) [Piperitone],activation at 1000 µM,human TRPA1; [1],90.1%
same,"A1V1 activation, % of agonist value",TRPA1V1; [1],109.1%
same,activation at 1000 µM,human TRPV1; [2],53.3%
CC(=O)OCc1ccc2c(c1)OCO2 [Piperonyl acetate],activation at 1000 µM,human TRPA1,62.7%
same,"A1V1 activation, % of agonist value",TRPA1V1; [1],78.00%
same,activation at 1000 µM,human TRPV1,20.9%
CC(C)C(=O)OCc1ccc2c(c1)OCO2 [Piperonyl isobutyrate],activation at 1000 µM,human TRPA1; [1],61%
same,"A1V1 activation, % of agonist value",TRPA1V1; [1],82.33%
same,activation at 1000 µM,human TRPV1; [2],30%
CCCSSc1ccoc1C [Propyl 2-methyl-3-furyl disulfide],activation at 1000 µM,human TRPA1; [3],210%
same,activation at 1000 µM,human TRPA1; [8],266%
same,"A1V1 activation, % of agonist value",TRPA1V1; [3],194.3%
same,"A1V1 activation, % of agonist value",TRPA1V1; [8],242.5%
same,activation at 1000 µM,human TRPV1; [4],25%
CCCOC(=O)c1ccc(O)cc1 [Propylparaben],activation at 1000 µM,human TRPA1; [9],93.2%
same,"TRPA1 activation selectivity, in words","human TRPA1; statement in description, see Table 1(i)",TRPA1 activator which does not modulate TRPV1 or TRPA1V1
same,"A1V1 activation, % of agonist value",TRPA1V1; [10],2.1%
same,activation at 1000 µM,human TRPV1; [11],1.6%
CC(=O)/C=C/C=C(\C)CCC=C(C)C [Pseudoionone],"A1 activation, % of agonist value",human TRPA1; [3],105.5%
same,"A1V1 activation, % of agonist value",TRPA1V1; [3],127.2%
same,"V1 activation, % of agonist value",human TRPV1; [4],20.76%
CC/C=C\CCOC(=O)C(C)=O [Pyruvic caid cis-3-hexen-1-yl ester],"A1 activation, % of agonist value",human TRPA1; [3],45%
same,"A1V1 activation, % of agonist value",TRPA1V1; [3],40%
same,"V1 activation, % of agonist value",human TRPV1; [4],21%
CCCCCCCCCCCCCCCC(=O)OC/C=C(C)/C=C/C=C(C)/C=C/C1=C(C)CCCC1(C)C [Retinol palmitate],activation at 1000 µM,human TRPA1; [3],76.4%
same,"A1V1 activation, % of agonist value",TRPA1V1; [3],76.97%
same,activation at 1000 µM,human TRPV1; [4],32.8%
